“Also recorded” adds a separate entry of the source. Where two headings read alike, the source gives them in different places.
Key:
A549 cells = type: cell-based, human; settings: for induction of phospholipidosis: NBD-PE staining, A549 cells
[1] = system: SARS-CoV-2 infected A549-ACE2 cells; type: cell-based
SARS-CoV-2 [2] = assay: Cellular antiviral assays against SARS-CoV-2; type: cell-based
SARS-CoV-2 [3] = settings: for effect on lung viral titer / viral propagation in mice: in vivo
human sigma-1 receptor = human sigma-1 receptor (Homo sapiens, UniProt Q99720); type: binding
human sigma-2 receptor = human sigma-2 receptor (Homo sapiens, UniProt Q5BJF2); settings: radioligand displacement, fractional binding at 1 μM (Fig. 2E)
Chain of human sigma-2 receptor (Q5BJF2 whole entry): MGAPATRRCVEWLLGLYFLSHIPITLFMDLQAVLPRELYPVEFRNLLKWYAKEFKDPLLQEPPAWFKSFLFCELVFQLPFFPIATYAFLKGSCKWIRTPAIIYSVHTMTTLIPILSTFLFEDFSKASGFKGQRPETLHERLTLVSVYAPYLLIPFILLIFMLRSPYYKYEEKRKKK

Chain of human sigma-1 receptor (Q99720 whole entry): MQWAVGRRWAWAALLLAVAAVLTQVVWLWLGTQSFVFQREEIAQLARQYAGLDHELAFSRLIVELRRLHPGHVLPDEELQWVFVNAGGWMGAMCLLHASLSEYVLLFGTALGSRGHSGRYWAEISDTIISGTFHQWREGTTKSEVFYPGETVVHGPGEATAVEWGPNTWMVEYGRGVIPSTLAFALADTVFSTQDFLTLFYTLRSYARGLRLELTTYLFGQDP

CN1CCC(CN2c3ccccc3Sc3ccccc32)C1 (stereo not shown) [Methdilazine]
phospholipidosis inducer class (A549 cells; DIPL relative to amiodarone): medium (key: > 50% of the strong phospholipidosis inducer amiodarone; medium: 50% > DIPL > 25% of amiodarone)

CCN(CCO)CCCC(C)Nc1ccnc2cc(Cl)ccc12 (stereo not shown) [Hydroxychloroquine]
NBD-PE aggregates vs DMSO [1]: substantial increases in NBD-PE aggregates

CC[C@H]1OC(=O)[C@H](C)[C@@H](O[C@H]2C[C@@](C)(OC)[C@@H](O)[C@H](C)O2)[C@H](C)[C@@H](O[C@@H]2O[C@H](C)C[C@H](N(C)C)[C@H]2O)[C@](C)(O)C[C@@H](C)CN(C)[C@H](C)[C@@H](O)[C@]1(C)O [Azithromycin]
induction of phospholipidosis (A549 cells): confirmed phospholipidosis-inducing activity

CC/C(=C(\c1ccccc1)c1ccc(OCCN(C)C)cc1)c1ccccc1 [Tamoxifen]
antiviral activity against SARS-CoV-2 in cells (SARS-CoV-2 [2]): mid-to high-nM activities against viral replication | effect on lung viral titer / viral propagation in mice (SARS-CoV-2 [3]): no substantial effect on viral propagation

Cc1ccccc1NC(=N)Nc1ccccc1C [DTG, ditolylguanidine]
induction of phospholipidosis (A549 cells): did not induce phospholipidosis | antiviral activity against SARS-CoV-2 in cells (SARS-CoV-2 [2]): not antiviral; also recorded: no measurable antiviral effects

CCCCc1oc2ccccc2c1C(=O)c1cc(I)c(OCCN(CC)CC)c(I)c1 [Amiodarone]
NBD-PE aggregates vs DMSO [1]: substantial increases in NBD-PE aggregates | antiviral activity against SARS-CoV-2 in cells (SARS-CoV-2 [2]): mid-to high-nM activities against viral replication | effect on lung viral titer / viral propagation in mice (SARS-CoV-2 [3]): no substantial effect on viral propagation

Cc1c2ccncc2c(C)c2c1[nH]c1ccccc12 [Ellipticine]
phospholipidosis inducer class (A549 cells; DIPL relative to amiodarone): medium (key: > 50% of the strong phospholipidosis inducer amiodarone; medium: 50% > DIPL > 25% of amiodarone) | induction of phospholipidosis (A549 cells): confirmed phospholipidosis-inducing activity

COc1cccc2c1CCCC2CCCN1CCN(C2CCCCC2)CC1 (stereo not shown) [PB28]
sigma-1 binding (human sigma-1 receptor): strong ligand of both sigma-1 and sigma-2 | sigma-2 binding (human sigma-2 receptor): strong ligand of both sigma-1 and sigma-2 | induction of phospholipidosis (A549 cells): both induce phospholipidosis | NBD-PE aggregates vs DMSO [1]: substantial increases in NBD-PE aggregates | effect on lung viral titer / viral propagation in mice (SARS-CoV-2 [3]): no substantial effect on viral propagation

CN1CCC[C@@H]1CCO[C@](C)(c1ccccc1)c1ccc(Cl)cc1 [Clemastine]
phospholipidosis (DIPL) (A549 cells): > 50 % of amiodarone

COc1cc2c(cc1OC)CN(CCc1ccc(NC(=O)c3cccc4c(=O)c5cccc(OC)c5[nH]c34)cc1)CC2 [Elacridar]
induction of phospholipidosis (A549 cells): non-phospholipidosis inducing | effect on lung viral titer / viral propagation in mice (SARS-CoV-2 [3]): modest antiviral effect | dose above which mice exhibited toxicities (SARS-CoV-2 [3]; mice, i.p. once per day): higher than 3 mg/kg

Cc1cc2c(s1)Nc1ccccc1N=C2N1CCN(C)CC1 [Olanzapine]
phospholipidosis inducer class (A549 cells; DIPL relative to amiodarone): medium (key: > 50% of the strong phospholipidosis inducer amiodarone; medium: 50% > DIPL > 25% of amiodarone) | induction of phospholipidosis (A549 cells): did induce phospholipidosis

O=C1NCN(c2ccccc2)C12CCN(CCCC(c1ccc(F)cc1)c1ccc(F)cc1)CC2 [Fluspirilene]
phospholipidosis inducer class (A549 cells; DIPL relative to amiodarone): medium (key: > 50% of the strong phospholipidosis inducer amiodarone; medium: 50% > DIPL > 25% of amiodarone)

CNCC[C@H](Oc1cccc2ccccc12)c1cccs1 [Duloxetine]
phospholipidosis inducer class (A549 cells): strong (key: > 50% of the strong phospholipidosis inducer amiodarone; medium: 50% > DIPL > 25% of amiodarone)

COc1cc2nc(N3CCCN(C)CC3)nc(NC3CCN(Cc4ccccc4)CC3)c2cc1OC [Bix 01294]
induction of phospholipidosis (A549 cells): confirmed phospholipidosis-inducing activity | NBD-PE aggregates vs DMSO [1]: substantial increases in NBD-PE aggregates | SARS-CoV-2 spike protein signal [1]: nearly complete loss of spike protein signal

CN[C@H]1CC[C@@H](c2ccc(Cl)c(Cl)c2)c2ccccc21 [Sertraline]
phospholipidosis (DIPL) (A549 cells): > 50 % of amiodarone | NBD-PE aggregates vs DMSO [1]: substantial increases in NBD-PE aggregates | antiviral activity against SARS-CoV-2 in cells (SARS-CoV-2 [2]): mid-to high-nM activities against viral replication | effect on lung viral titer / viral propagation in mice (SARS-CoV-2 [3]): no substantial effect on viral propagation

CN(C)CCOc1ccc(/C(=C(/CCCl)c2ccccc2)c2ccccc2)cc1 [Toremifene]
phospholipidosis inducer class (A549 cells; DIPL relative to amiodarone): strong (key: > 50% of the strong phospholipidosis inducer amiodarone; medium: 50% > DIPL > 25% of amiodarone)

CCSc1ccc2c(c1)N(CCCN1CCN(C)CC1)c1ccccc1S2 [Thiethylperazine]
phospholipidosis inducer class (A549 cells; DIPL relative to amiodarone): medium (key: > 50% of the strong phospholipidosis inducer amiodarone; medium: 50% > DIPL > 25% of amiodarone)

CC(C)(C)c1ccc(C(=O)CCCN2CCC(OC(c3ccccc3)c3ccccc3)CC2)cc1 [Ebastine]
induction of phospholipidosis (A549 cells): confirmed phospholipidosis-inducing activity

CC1CCN(CCCC(=O)c2ccc(F)cc2)CC1 [Melperone]
induction of phospholipidosis (A549 cells): did not induce phospholipidosis; also recorded: non-phospholipidosis inducing | antiviral activity against SARS-CoV-2 in cells (SARS-CoV-2 [2]): not antiviral; also recorded: no measurable antiviral effects

— article PMC8010720 (bioRxiv, 2021)
